Assay results as given in US20260176232A1, “PROBENECID COMPOUNDS FOR THE TREATMENT OF INFLAMMASOME-MEDIATED DERMATOLOGICAL CONDITIONS” (Bacainn Biotherapeutics, Ltd., priority 2022, published 2026).

Key:
NLRC4 inflammasome = NLRC4 inflammasome (Mus musculus, UniProt Q3UP24); experiment: IL-1β secretion in macrophages challenged with Flagellin (FIG. 4C); format: cell-based, human; details: BT032 20, 100 μM; 6 h
Text: In vitro stimulation of human macrophages.

[1] = biological target: T1, recombinant full length NLRP1 (Homo sapiens, UniProt Q9C000); experiment: Photo-affinity labelling of recombinant full length NLRP1, anti-PEG immunoblot (FIG. 9E); format: binding; details: inferred from photo-affinity probes ADS165, ADS167
T1 sequence (Q9C000 1-1473): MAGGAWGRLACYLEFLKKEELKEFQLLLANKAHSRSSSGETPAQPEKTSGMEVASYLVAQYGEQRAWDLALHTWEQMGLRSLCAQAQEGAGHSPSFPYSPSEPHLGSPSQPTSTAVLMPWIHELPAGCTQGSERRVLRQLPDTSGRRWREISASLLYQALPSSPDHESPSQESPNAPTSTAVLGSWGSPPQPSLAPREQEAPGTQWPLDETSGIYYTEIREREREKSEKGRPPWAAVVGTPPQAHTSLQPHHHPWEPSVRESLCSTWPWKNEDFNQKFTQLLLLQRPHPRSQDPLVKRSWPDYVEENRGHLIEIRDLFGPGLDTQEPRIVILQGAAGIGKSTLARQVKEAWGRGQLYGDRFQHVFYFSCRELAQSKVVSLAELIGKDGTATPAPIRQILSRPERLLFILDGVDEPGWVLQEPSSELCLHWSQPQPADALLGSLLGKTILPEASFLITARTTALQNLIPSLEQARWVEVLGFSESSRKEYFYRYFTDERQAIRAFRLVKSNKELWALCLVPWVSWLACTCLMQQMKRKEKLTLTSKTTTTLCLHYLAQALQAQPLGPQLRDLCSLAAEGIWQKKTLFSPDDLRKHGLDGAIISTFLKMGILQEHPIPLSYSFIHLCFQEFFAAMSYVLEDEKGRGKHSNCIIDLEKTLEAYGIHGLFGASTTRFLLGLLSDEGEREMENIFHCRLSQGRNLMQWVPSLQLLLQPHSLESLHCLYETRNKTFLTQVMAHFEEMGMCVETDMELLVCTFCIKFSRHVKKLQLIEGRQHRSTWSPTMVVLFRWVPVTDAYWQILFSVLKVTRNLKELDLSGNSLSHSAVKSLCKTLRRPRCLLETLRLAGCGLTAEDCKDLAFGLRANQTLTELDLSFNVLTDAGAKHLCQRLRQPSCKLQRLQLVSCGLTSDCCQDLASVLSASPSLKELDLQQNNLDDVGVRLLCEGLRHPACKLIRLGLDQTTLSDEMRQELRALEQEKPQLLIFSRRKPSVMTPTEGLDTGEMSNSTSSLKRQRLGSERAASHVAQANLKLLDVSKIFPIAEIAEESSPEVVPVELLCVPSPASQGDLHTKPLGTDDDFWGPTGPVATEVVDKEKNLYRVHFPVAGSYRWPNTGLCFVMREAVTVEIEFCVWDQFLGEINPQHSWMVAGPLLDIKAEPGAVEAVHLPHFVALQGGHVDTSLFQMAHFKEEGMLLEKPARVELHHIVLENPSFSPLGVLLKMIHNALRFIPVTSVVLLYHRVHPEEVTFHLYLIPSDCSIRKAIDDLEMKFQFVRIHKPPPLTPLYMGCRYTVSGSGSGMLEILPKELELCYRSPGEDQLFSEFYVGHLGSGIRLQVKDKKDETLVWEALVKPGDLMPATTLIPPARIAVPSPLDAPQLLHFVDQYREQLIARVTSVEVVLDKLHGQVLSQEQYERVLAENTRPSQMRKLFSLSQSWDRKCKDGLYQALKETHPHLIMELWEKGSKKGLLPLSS
Protocol: FIGS. 9A-9F are a series of panels showing ADS032 (also referred to herein as “BT032”) directly binds to NLRP1 and NLRP3. FIGS. 9A and 9B are chemical structures of ADS165 and ADS167. […] ADS165 was then co-incubated for 20 mins and UV treated for 20 mins to cross-link associated compound and protein. Protein was separated by SDS-PAGE and immunoblotted (IB) with anti-PEG to visualize ADS165-linked protein. FIG. 9D: iBMDM cells stably expressing NLRP3-Flag were treated for 30 mins with ADS165, ADS167 (1 mM) or MCC955 (50 μM) for 30 mins, and irradiated with UV 365 nm for 30 mins. Cells were lysed with buffer and immunoprecipitation (IP) of NLRP3 performed with α-NLRP3 (D4D8T) antibody. Levels of precipitated (IP) and total cellular lysate (Input) NLRP3 were determined by immunoblotting with α-NLRP3 (Cryo-2) antibody. FIG. 9F: NLRP1-Flag was expressed in HEK293T cells (1×10^6) for 20 h and treated with ADS165 (1 mM) for 30 mins where indicated, followed by UV 365 nm for a further 30 mins. Cells were lysed with lysis buffer and […] immunoprecipitated with α-Flag (M2) antibody. Proteins were separated by SDS-PAGE and ADS165-linked NLRP1 identified by immunoblot with a-PEG, while total precipitated NLRP1 visualized by immunoblot with α-NLRP1 and total cell lysate by α-Flag. Data shown is representative of three independent experiments.
Next, it was determined whether ADSO32 could interact with NLRP1. […] To further investigate this interaction, ectopically expressed Flag-tagged NLRP1 was immunoprecipitated from cell lysates pretreated or not with ADS165 and exposed to UV light.

[2] = test system: lesional skin from patients with psoriasis; experiment: Psoriasis-related gene expression in psoriatic lesion biopsy specimens ex vivo; format: cell-based, human; details: 500 ng/mL, 12 hours
Protocol: Human samples. Biopsy specimens of psoriatic lesions are obtained from about 10 patients after obtaining informed consent. Two adjacent biopsy specimens are taken from each patient. All specimens are cut at the upper dermis, and the epidermal side is used for the experiment. As a medium, HuMedia-KB2 (Kurabo) containing insulin, human epidermal growth factor, bovine pituitary extract, and gentamicin/amphotericin B is used, according to the manufacturer's protocol. One specimen is cultured with vehicle (DMSO), and the adjacent one was cultured with BT032 (500 ng/mL) for 12 hours.
RNA isolation and the quantitative RT-PCR analysis. Total RNA is isolated using Trizol (Invitrogen, Carlsbad, CA) or RNeasy kits (Qiagen, PL Venlo, Netherlands) according to the manufacturer's protocol. Complementary DNA is reverse transcribed using a Prime Script RT reagent kit (Takara Bio, Shiga, Japan). The quantitative RT-PCR is performed by monitoring the synthesis of double-stranded DNA during the various PCR cycles with SYBR Green I (Roche, Basel, Switzerland) and the LightCycler real-time PCR apparatus (Roche), according to the manufacturer's instructions. All primers are obtained from Greiner Japan (Tokyo, Japan).

NLRC4 inflammasome, sequence (Q3UP24 whole entry): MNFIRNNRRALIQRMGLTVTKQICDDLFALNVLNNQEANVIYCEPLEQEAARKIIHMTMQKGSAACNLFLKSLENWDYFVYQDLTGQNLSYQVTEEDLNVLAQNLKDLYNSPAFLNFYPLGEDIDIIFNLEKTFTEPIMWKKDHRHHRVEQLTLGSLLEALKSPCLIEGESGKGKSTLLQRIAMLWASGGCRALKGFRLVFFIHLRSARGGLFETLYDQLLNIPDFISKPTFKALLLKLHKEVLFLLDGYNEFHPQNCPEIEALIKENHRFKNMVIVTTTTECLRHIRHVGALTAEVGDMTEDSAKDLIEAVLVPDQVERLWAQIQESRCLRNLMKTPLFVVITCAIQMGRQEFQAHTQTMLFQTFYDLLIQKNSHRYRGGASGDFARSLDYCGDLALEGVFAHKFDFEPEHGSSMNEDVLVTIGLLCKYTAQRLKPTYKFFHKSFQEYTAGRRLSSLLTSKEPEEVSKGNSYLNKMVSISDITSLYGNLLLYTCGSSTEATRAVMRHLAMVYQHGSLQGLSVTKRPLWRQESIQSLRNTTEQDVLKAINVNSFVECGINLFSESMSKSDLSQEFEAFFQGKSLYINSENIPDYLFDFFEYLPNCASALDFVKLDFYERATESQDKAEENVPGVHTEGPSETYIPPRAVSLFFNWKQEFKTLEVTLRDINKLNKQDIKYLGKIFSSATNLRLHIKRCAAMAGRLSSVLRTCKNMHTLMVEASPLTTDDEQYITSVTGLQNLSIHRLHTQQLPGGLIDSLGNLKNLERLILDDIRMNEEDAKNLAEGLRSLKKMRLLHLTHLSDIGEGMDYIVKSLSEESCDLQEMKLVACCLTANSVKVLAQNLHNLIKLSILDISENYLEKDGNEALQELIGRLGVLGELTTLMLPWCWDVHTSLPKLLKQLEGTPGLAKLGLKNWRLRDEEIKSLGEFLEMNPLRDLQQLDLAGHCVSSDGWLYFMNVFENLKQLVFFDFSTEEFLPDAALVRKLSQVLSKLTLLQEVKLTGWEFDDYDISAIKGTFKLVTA

CCCN(CCC)S(=O)(=O)c1ccc(-c2ccc(CCCC(=O)O)cc2)cc1 [BT032, 4-(4′-(N,N-dipropylsulfamoyl)-[1,1′-biphenyl]-4-yl)butanoic acid] was tested, and the “NLRC4 (Flagellin)-mediated inflammasome activation” value (NLRC4 inflammasome) was “no effect”, the “direct interaction with NLRP1” value [1] was “directly interacts proximal to the Walker B motif within the NACHT domain” and the “expression levels of IL1B, IL6, IL23A, IL17A versus control specimens” value [2] was “lower expression levels”.
